Source: PMC11670956, “A cell-based Papain-like Protease (PLpro) activity assay for rapid detection of active SARS-CoV-2 infections and antivirals” (PLOS ONE, 2024)

Target: T1, SARS-CoV-2 Papain-like protease (PLpro) (Severe acute respiratory syndrome coronavirus 2, UniProt P0DTD1)
T1 construct: gene rep; natural full-length PLpro (nsp3) made in infected VeroE6 cells, crude lysate; mature chain nsp3 of replicase polyprotein 1a / 1ab
Test: fluorogenic Pun74-R110 peptide cleavage in lysates of infected, inhibitor-pretreated VeroE6 cells
Format: biochemical
Conditions: unreliable (tentative; one experiment in duplicate); inhibitor given to live cells 2 h before infection (0.01 MOI, 24 h, 37 °C); PLpro read in lysate with 50 nM Pun74-R110, 5 mM DTT, pH 7.4, room temp

Cc1ccc(N)cc1C(=O)N[C@H](C)c1cccc2ccccc12 [GRL0617]
IC50: 38.3 µM
